Source: patent US7897582B2, “Oligonucleotide compositions and methods for the modulation of the expression of B7 protein” (Isis Pharmaceuticals, Inc., priority 2003, dated 2011)
Strand notation (5' to 3'): a small letter for the sugar, then the base; units joined by * are phosphorothioate-linked, units joined directly phosphodiester-linked; [ ] holds rarer units or linkages, { } end groups; capitals alone tell only the bases. e = 2'-O-(2-methoxyethyl) (MOE); [5mC] = 5-methylcytosine; d = 2'-deoxy (DNA)

Test system: Human B7-1 mRNA
Assay: Human B7-1 mRNA expression in COS-7 cells, screened as in Example 4
Assay type: cell-based

Substance: 22315 (eT*eT*eT*eA*eG*dT*dT*dT*d[5mC]*dA*d[5mC]*dA*dG*d[5mC]*dT*eT*eG*e[5mC]*eT*eG) [compound 22315]
- % mRNA EXPRESSION (human B7-1 mRNA, Table 7): 49%

Substance: 22318 (eG*eT*eG*eA*eA*dA*dG*d[5mC]*d[5mC]*dA*dA*d[5mC]*dA*dA*dT*eT*eT*eG*eG*eA; antisense) [compound 22318]
- % mRNA EXPRESSION (human B7-1 mRNA, Table 7): 63%
- % mRNA INHIBITION (human B7-1 mRNA, Table 7): 37%

Substance: 22319 (e[5mC]*eA*eT*eG*eG*d[5mC]*dT*dT*d[5mC]*dA*dG*dA*dT*dG*d[5mC]*eT*eT*eA*eG*eG; antisense) [compound 22319]
- % mRNA EXPRESSION (human B7-1 mRNA, Table 7): 68%
- % mRNA INHIBITION (human B7-1 mRNA, Table 7): 32%

Substance: 22321 (eG*eA*e[5mC]*e[5mC]*eA*dG*d[5mC]*d[5mC]*dA*dG*d[5mC]*dA*d[5mC]*d[5mC]*dA*eA*eG*eA*eG*e[5mC]; antisense) [compound 22321]
- % mRNA EXPRESSION (human B7-1 mRNA, Table 7): 57%
- % mRNA INHIBITION (human B7-1 mRNA, Table 7): 43%

Substance: 22326 (antisense eG*eT*eA*eT*eG*dT*dG*d[5mC]*d[5mC]*d[5mC]*dT*d[5mC]*dG*dT*d[5mC]*eA*eG*eA*eT*eG) [compound 22326]
- % mRNA EXPRESSION (human B7-1 mRNA, Table 7): 62%
- % mRNA INHIBITION (human B7-1 mRNA, Table 7): 38%

Substance: 22328 (antisense eG*eG*eA*eA*eG*dT*d[5mC]*dA*dG*d[5mC]*dT*dT*dT*dG*dA*e[5mC]*eT*eG*eA*eT) [compound 22328]
- % mRNA EXPRESSION (human B7-1 mRNA, Table 7): 64%
- % mRNA INHIBITION (human B7-1 mRNA, Table 7): 36%

Substance: 22329 (antisense e[5mC]*e[5mC]*eT*e[5mC]*e[5mC]*dA*dG*dA*dG*dG*dT*dT*dG*dA*dG*e[5mC]*eA*eA*eA*eT) [compound 22329]
- % mRNA EXPRESSION (human B7-1 mRNA, Table 7): 59%
- % mRNA INHIBITION (human B7-1 mRNA, Table 7): 41%

Substance: 22330 (antisense e[5mC]*e[5mC]*eA*eA*e[5mC]*d[5mC]*dA*dG*dG*dA*dG*dA*dG*dG*dT*eG*eA*eG*eG*e[5mC]) [compound 22330]
- % mRNA EXPRESSION (human B7-1 mRNA, Table 7): 54%
- % mRNA INHIBITION (human B7-1 mRNA, Table 7): 46%

Substance: 22331 (antisense eG*eA*eA*eG*e[5mC]*dT*dG*dT*dG*dG*dT*dT*dG*dG*dT*eT*eG*eT*e[5mC]*eA) [compound 22331]
- % mRNA EXPRESSION (human B7-1 mRNA, Table 7): 62%
- % mRNA INHIBITION (human B7-1 mRNA, Table 7): 38%

Substance: 22332 (antisense eT*eT*eG*eA*eA*dG*dG*dT*d[5mC]*dT*dG*dA*dT*dT*d[5mC]*eA*e[5mC]*eT*e[5mC]*eT) [compound 22332]
- % mRNA EXPRESSION (human B7-1 mRNA, Table 7): 67%
- % mRNA INHIBITION (human B7-1 mRNA, Table 7): 33%

Substance: 22333 (antisense eA*eA*eG*eG*eT*dA*dA*dT*dG*dG*d[5mC]*d[5mC]*d[5mC]*dA*dG*eG*eA*eT*eG*eG) [compound 22333]
- % mRNA EXPRESSION (human B7-1 mRNA, Table 7): 73%
- % mRNA INHIBITION (human B7-1 mRNA, Table 7): 27%

Substance: 22336 (antisense eA*eG*e[5mC]*e[5mC]*e[5mC]*d[5mC]*dT*dT*dG*d[5mC]*dT*dT*d[5mC]*dT*dG*e[5mC]*eG*eG*eA*e[5mC]) [compound 22336]
- % mRNA EXPRESSION (human B7-1 mRNA, Table 7): 55%
- % mRNA INHIBITION (human B7-1 mRNA, Table 7): 45%

Substance: 22339 (antisense eG*eT*eA*eA*eA*dA*d[5mC]*dA*dG*d[5mC]*dT*dT*dA*dA*dA*eT*eT*eT*eG*eT) [compound 22339]
- % mRNA EXPRESSION (human B7-1 mRNA, Table 7): 69%
- % mRNA INHIBITION (human B7-1 mRNA, Table 7): 31%

Substance: 22340 (antisense eA*eG*eA*eA*eG*dA*dG*dG*dT*dT*dA*d[5mC]*dA*dT*dT*eA*eA*eG*e[5mC]*eA) [compound 22340]
- % mRNA EXPRESSION (human B7-1 mRNA, Table 7): 71%
- % mRNA INHIBITION (human B7-1 mRNA, Table 7): 29%

Substance: 22341 (antisense eA*eG*eA*eT*eA*dA*dT*dG*dA*dA*dT*dT*dG*dG*d[5mC]*eT*eG*eA*e[5mC]*eA) [compound 22341]
- % mRNA EXPRESSION (human B7-1 mRNA, Table 7): 59%
- % mRNA INHIBITION (human B7-1 mRNA, Table 7): 41%

Substance: 24733 (antisense eG*e[5mC]*eG*eT*e[5mC]*dA*dT*d[5mC]*dA*dT*d[5mC]*d[5mC]*dG*d[5mC]*dA*e[5mC]*e[5mC]*eA*eT*e[5mC]) [compound 24733]
- % mRNA EXPRESSION (10 nM, COS-7, Table 8): 90%
- % mRNA INHIBITION (10 nM, COS-7, Table 8): 10%
- % mRNA EXPRESSION (30 nM, COS-7, Table 8): 91%
- % mRNA INHIBITION (30 nM, COS-7, Table 8): 9%
- % mRNA EXPRESSION (100 nM, COS-7, Table 8): 90%
- % mRNA INHIBITION (100 nM, COS-7, Table 8): 10%
- % mRNA EXPRESSION (300 nM, COS-7, Table 8): 80%
- % mRNA INHIBITION (300 nM, COS-7, Table 8): 20%
